Experimental data taken from patent US6346529B1, “Antiviral therapy using thiazine dyes” (Oklahoma Medical Research Foundation, priority 1988, dated 2002).
Like-named read-outs stand apart in the source and are kept apart here.

Columns and labels:
Assay type in all cases: cell-based
HSV-1 (F strain) = assay: HSV plaque reduction assay in Vero cells, HSV-1; settings: read-out: Antiviral Effect: EC50 HSV-1
Description: (§1) HSV Preparation: Confluent HEp-2 cells, in a roller bottle (Falcon, 850 cm^2), were infected at an input multiplicity of 0.01 PFU per cell (to minimize production of defective viruses). During the two-hour absorption period, the cells were exposed to the virus inoculum diluted in absorption buffer (10 ml PBS containing 1% newborn calf serum and 0.1% glucose). The virus inoculum was then removed and replaced with Hanks' Minimum Essential Medium (MEM) containing 2% inactivated newborn calf serum, penicillin (100 U/ml) and streptomycin (100 μg/ml) (P and S), sodium bicarbonate (2 g/L) and HEPES (25 mM) (maintenance medium). The infected cells were incubated at 37° C. for 3 to 4 days, until the cells could be easily shaken from the plastic surface of the culture bottles. The cells were then collected by centrifugation, suspended in a small volume of spent culture fluid (5 ml per 2×10^8 cells) and sonicated 3 times for one min on ice. The disrupted cells were centrifuged (2,000 g for 15 min at 4° C. and the supernatant was diluted with an equal volume of sterile skimmed milk (as stabilizer) and aliquots were frozen at −70° C.
(§2) HSV Plaque Reduction Assay: Near confluent Vero (African Green Monkey) cells in 6-well plates were infected with 100 μl virus diluted in absorption buffer to give 100-200 plaques per well. The plates were then incubated at 37° C. for 1 hour with intermittent rocking every 15 minutes. The inoculum was aspirated and the compounds at different concentrations (dissolved in maintenance medium) were added to replicate wells. For these assays, 0.1% pooled human gamma globulin was included in the media. The plates were placed in 5% CO2-95% air incubator and the plaques were allowed to develop for 48 h prior to fixation (buffered 10% Formalin acetate), staining (0.5% crystal violet in 20% EtOH/H2O) and enumeration. The degree of inhibition (percent plaques of control) was calculated by counting the mean plaque counts for the different drug dilutions. […] For routine antiviral drug screening, we used the F strain of HSV-1 and the G strain of HSV-2 (Ejercito, et al., “Characterization of Herpes Simplex virus Strains Differing in Their Effect on Social Behavior of Infected Cells,” J. Gen. Virol. 2, 357-364 (1968)). […] Acyclovir (ACV) was used as a positive control for the studies on HSV.
(§3) Median-Effect Method: EC50 and IC50 values were obtained by analysis of the data using the median-effect equation (Chou, T., et al., “Quantitative Analysis of Dose-Effect Relationships: The Combined Effects of Multiple Drugs or Enzyme Inhibitors,” Adv. Enz. Regul. 22, 27-55 (1984).

HSV-2 (G strain) = assay: HSV plaque reduction assay in Vero cells, HSV-2; settings: read-out: Antiviral Effect: EC50 HSV-2
Description: as §1, §2, §3

HIV-1 (strain LAV-1) = assay: Inhibition of HIV-1 replication in human PBMC (supernatant RT activity); settings: Human immunodeficiency virus 1, PBMC
Description: Cells: Human peripheral blood mononuclear cells (PBMC) from healthy HIV-1 seronegative and hepatitis B virus seronegative donors were isolated by Ficoll-Hypaque discontinuous gradient centrifugation at 1,000×g for 30 minutes, washed twice in phosphate-buffered saline (pH 7.2; PBS), and pelleted at 300×g for 10 minutes. Before infection, the cells were stimulated by phytohemagglutinin (PHA) at a concentration of 16.7 μg/ml, and 4 mM sodium bicarbonate buffer.
Retrovirus: HIV-1 (strain LAV-1) was obtained from Dr. P. Feorino (Centers for Disease Control, Atlanta, Ga.). The virus was propagated in human PBMC using RPMI 1640 medium, as described previously by McDougal, et al., (“Immunoassay for the detection and quantitation of infectious human retrovirus, lymphadenopathy-associated virus (LAV),” J. Immun. Meth. 76, 171-183, 1985) without PBA or fungizone and supplemented with 7% (v/v) interleukin-2 (Advanced Biotechnologies, Silver Spring, Md.), 7 μg/ml DEAE-dextran (Pharmacia, Uppsala, Sweden), and 370 U/ml anti-human leukocyte (alpha) interferon (ICN, Lisle, Ill.). Virus obtained from cell-free culture supernatant was titrated and stored in aliquots at −70° C. until use.
Inhibition of Virus Replication in Human PBMC: Uninfected PHA-stimulated human PBMC were uniformly distributed among 25 cm^2 flasks to give a 5 ml suspension containing about 2×10^6 cells/ml. Suitable dilutions of virus were added to infect the cultures. The mean reverse transcriptase (RT) activity of the inocula was 50,000 dpm/ml corresponding to about 100 TCID50, as determined by Groopman, et al., (1987), “Characterization of Serum Neutralization Response to the Human Immunodeficiency Virus (HIV),” AIDS Res. Human Retro. 3, 71-85. The drugs, at twice their final concentrations in 5 ml of RPMI 1640 medium (supplemented as described above), were added to the cultures. Uninfected and untreated PBMC at equivalent cell densities were grown in parallel as controls. The cultures were maintained in a humidified 5% CO2-95% air incubator at 37° C. for six days after infection at which point all cultures were sampled for supernatant RT activity.
RT Activity Assay: A […] aliquot of supernatant from each culture was clarified of cells at 300×g for 10 minutes. […]
The RT assay was performed in 96-well microtiter plates, as described by Spira, et al. (1987), “Micromethod for Assaying the Reverse Transcriptase of LAV-HTLV-III/Lymphadenopathy-Associated Virus,” J. Clin. Microbiol. […] Four ml of scintillation fluid (Econofluor, NEN Research Products, Boston, Mass.) were added and the amount of radioactivity in each sample was determined using a Packard Tri-Carb liquid scintillation analyzer (model 2,000CA). […]

EC50 (HSV-1 (F strain); Human alphaherpesvirus 1, Vero, dark) | EC50 (HSV-1 (F strain); Human alphaherpesvirus 1, Vero, light) | EC50 (HSV-2 (G strain); Human alphaherpesvirus 2, Vero, dark) | EC50 (HSV-2 (G strain); Human alphaherpesvirus 2, Vero, light) | EC50 (HIV-1 (strain LAV-1); light, read-out: Antiviral Effect: EC50 HIV-1) | Compound | EC50 (HSV-1 (F strain); Human alphaherpesvirus 1, Vero) | EC50 (HSV-1 (F strain); dark) | EC50 (HSV-2 (G strain); Human alphaherpesvirus 2, Vero) | EC50 (HSV-2 (G strain); dark) | EC50 (HIV-1 (strain LAV-1); read-out: Antiviral Effect: EC50 HIV-1, dark) | EC50 (HIV-1 (strain LAV-1); read-out: Antiviral Effect: EC50 HIV-1, light)
 |  |  |  |  | CN(C)c1ccc2nc3ccc(N(C)C)cc3[s+]c2c1.[Cl-] [MB, 3,7-Bis(dimethylamino)phenothiazin-5-ium chloride] | ≥ 10000 nM | ≥ 10000 nM | ≥ 10000 nM | ≥ 10000 nM | 140 nM | 28 nM
13 nM | 22 nM | 160 nM | 510 nM | > 100000 nM | Nc1nc2c(ncn2COCCO)c(=O)[nH]1 [ACV, Acyclovir] |  |  |  |  |  | 
